From PMC6522510 (Nature Communications, 2019)
Counter-ions that a name gives are not always drawn. Like-named read-outs stand apart in the source and are kept apart here.

Experiments:
Set-up in all cases: species or system AML cell lines (8); Primary HTS, single concentration about 10 uM, Cell Titer Glo viability; log10 luminescence, per cent inhibition relative to cycloheximide control
Settings in all cases: 72 h, relative to cycloheximide control, log10 luminescence, inhibitor
M07e = tested on: M07e
CMK = tested on: CMK
U937 = tested on: U937
MV4-11 = tested on: MV4-11
CHRF288-11 = tested on: CHRF288-11
CMS = tested on: CMS
ML-2 = tested on: ML-2
MOLM-13 = tested on: MOLM-13

Structure (SMILES) | M07e %inh (M07e) [%] | CMK %inh (CMK) [%] | U937 %inh (U937) [%] | MV4-11 %inh (MV4-11) [%] | CHRF288-11 %inh (CHRF288-11) [%] | CMS %inh (CMS) [%] | ML-2 %inh (ML-2) [%] | MOLM-13 %inh (MOLM-13) [%] | M07e %inh (M07e; M07e %inh, 10 µM) [%] | CMK %inh (CMK; CMK %inh, 10 µM) [%] | U937 %inh (U937; U937 %inh, 10 µM) [%] | MV4-11 %inh (MV4-11; MV4-11 %inh, 10 µM) [%] | CHRF288-11 %inh (CHRF288-11; CHRF288-11 %inh, 10 µM) [%] | CMS %inh (CMS; CMS %inh, 10 µM) [%] | ML-2 %inh (ML-2; ML-2 %inh, 10 µM) [%] | MOLM-13 %inh (MOLM-13; MOLM-13 %inh, 10 µM) [%]
C=CC[C@@H]1[C@H](O)CC[C@@]2(C)[C@H]1CC[C@@H]1[C@@H]2CC[C@]2(C)[C@@H]([C@H](C)CCCC(C)C)CC[C@@H]12 [SJ000561065-1, LY 295427] | 2.452 | -3.189 | 1.28 | 0.6492 | -1.753 | -1.154 | 0.971 | 1.105 | – | – | – | – | – | – | – | –
CC(C)=CCC/C(C)=C/CC/C(C)=C/CC/C(C)=C/CO [SJ000561066-1, GERANYLGERANIOL] | 0.9105 | -0.4924 | 2.958 | 1.567 | 0.138 | 3.121 | 1.709 | -0.5636 | – | – | – | – | – | – | – | –
CC1=C(/C=C/C(C)=C/C=C/C(C)=C/C(=O)O)C(C)(C)CCC1O (stereo not drawn) [SJ000561070-1, 4-HYDROXYRETINOIC ACID] | 7.941 | 1.361 | 18.11 | 34.76 | -3.112 | 38.35 | 5.11 | 7.362 | – | – | – | – | – | – | – | –
CCC1(CC)C(=O)NC(=O)N(C)C1=O [SJ000562691-1, METHARBITAL] | -1.141 | -5.926 | -1.698 | 0.7749 | 3.211 | -4.139 | -0.4535 | -1.73 | – | – | – | – | – | – | – | –
N=C1NC(=O)N2CC12 (stereo not drawn) [SJ000564440-1, IMEXON] | 3.11 | -0.6297 | 11.23 | 2.121 | 28.3 | 13.09 | 2.993 | 4.482 | – | – | – | – | – | – | – | –
CC(C)C(=O)OCC(=O)[C@@]12O[C@H](C3CCCCC3)O[C@@H]1C[C@H]1[C@@H]3CCC4=CC(=O)C=C[C@]4(C)[C@H]3[C@@H](O)C[C@@]12C [SJ000565158-1, CICLESONIDE] | – | – | – | – | – | – | – | – | -1.566 | 2.034 | -2.58 | -5.442 | 0.4753 | -0.07433 | -1.054 | 4.252
CC(C)C(=O)OCC(=O)[C@@]12O[C@H](C3CCCCC3)O[C@@H]1C[C@H]1[C@@H]3CCC4=CC(=O)C=C[C@]4(C)[C@H]3[C@@H](O)C[C@@]12C [SJ000565158-2, CICLESONIDE] | – | – | – | – | – | – | – | – | 1.744 | 0.8609 | 6.134 | -3.886 | 3.888 | 2.27 | -2.112 | -0.3458
CC(C)Nc1cccnc1N1CCN(C(=O)c2cc3cc(NS(C)(=O)=O)ccc3[nH]2)CC1 [SJ000565159-1, DELAVIRDINE MESYLATE] | -1.136 | -2.785 | 0.4896 | 1.25 | -4.194 | -2.71 | -1.959 | 5.504 | – | – | – | – | – | – | – | –
O=C(O[C@@H]1C[C@@H]2C[C@H]3C[C@H](C1)N2CC3=O)c1c[nH]c2ccccc12 [SJ000565162-1, DOLASETRON MESYLATE] | 0.4101 | 0.6983 | -1.048 | -0.3278 | -2.852 | -2.789 | 0.9019 | 27.78 | – | – | – | – | – | – | – | –
Cc1ccccc1N1CCN(CCc2nnc3n2CCCC3)CC1 [SJ000565164-1, DAPIPRAZOLE HYDROCHLORIDE] | – | – | – | – | – | – | – | – | -1.247 | -9.616 | -2.961 | -2.751 | 8.203 | -1.478 | 2.518 | 25.76
Cc1ccccc1N1CCN(CCc2nnc3n2CCCC3)CC1 [SJ000565164-2, DAPIPRAZOLE HYDROCHLORIDE] | – | – | – | – | – | – | – | – | 0.4169 | -2.237 | -1.057 | 0.3008 | 1.908 | -0.5071 | 1.742 | 3.696
CCCCC[C@](C)(O)/C=C/[C@@H]1[C@@H](C/C=C\CCCC(=O)O)[C@@H](O)C[C@H]1O [SJ000565165-1, CARBOPROST TROMETHAMINE] | -0.103 | -7.865 | -1.422 | 1.156 | 21.89 | 2.5 | 2.687 | 2.726 | – | – | – | – | – | – | – | –
CCN(CC)CCOC(=O)c1ccc(N)cc1Cl [SJ000565166-1, CHLOROPROCAINE HYDROCHLORIDE] | -0.3142 | -4.183 | -1.434 | 1.062 | 2.414 | -2.449 | 1.664 | 5.209 | – | – | – | – | – | – | – | –
CCCCCCCCCCCCCCCCCCCCCCO [SJ000565168-1, 1-DOCOSANOL (BEHENYL ALCOHOL)] | 3.056 | -5.554 | -0.3827 | -0.7251 | 5.263 | -0.803 | -0.3569 | -4.024 | – | – | – | – | – | – | – | –
CO/N=C(\C(=O)N[C@@H]1C(=O)N2C(C(=O)O)=CCS[C@H]12)c1csc(N)n1 [SJ000565169-1, CEFTIZOXIME SODIUM] | 1.196 | -4.179 | -0.2552 | -0.08777 | -3.529 | -3.365 | -0.7534 | -3.581 | – | – | – | – | – | – | – | –
CC1(C)O[C@@H]2C[C@H]3[C@@H]4CCC5=CC(=O)C=C[C@]5(C)[C@H]4[C@@H](O)C[C@]3(C)[C@]2(C(=O)CO)O1 [SJ000565170-1, DESONIDE] | 8.441 | 3.484 | 6.18 | 0.7481 | 6.238 | 1.425 | -0.7887 | 5.492 | – | – | – | – | – | – | – | –
CC=CC1=C(C(=O)O)N2C(=O)[C@@H](NC(=O)[C@H](N)c3ccc(O)cc3)[C@H]2SC1 [SJ000565172-1, CEFPROZIL] | – | – | – | – | – | – | – | – | -0.1553 | -2.483 | 0.9255 | 3.254 | -2.763 | -1.599 | -0.9482 | 3.181
CC=CC1=C(C(=O)O)N2C(=O)[C@@H](NC(=O)[C@H](N)c3ccc(O)cc3)[C@H]2SC1 [SJ000565172-2, CEFPROZIL] | – | – | – | – | – | – | – | – | -4.985 | 1.641 | -2.74 | 1.013 | -7.818 | -3.774 | -1.058 | 0.07702
